Source: patent US12018024B2, “Compounds and compositions for the treatment of cryptosporidiosis” (Novartis AG, priority 2020, dated 2024)

What was measured:
Cryptosporidium parvum = test: Cytopathic effect (CPE) based assay, C. parvum-infected HCT-8 cells; format: cell-based; settings: HCT-8, 48 h, read-out: (b) C.p.* CPE EC50 (μM)
Procedure: (§1) Human ileocecal colorectal adenocarcinoma cells (HCT-8 [HRT-18] ATCC, CCL-34) were maintained in T-175 flasks (Corning, 431080) in complete growth medium (RPMI-1640 medium (Gibco, 11875) supplemented with 10% heat-inactivated horse serum (Gibco, 26050), 1× MEM non-essential amino acids (Gibco, 11140), 10 mM HEPES (Gibco, 15630), 100 units/mL penicillin, and 100 units/mL streptomycin) at 37° C. and 5% CO2 in a humidified incubator. Cultures were passaged twice weekly using 10 mL of 1× Phosphate-Buffered Saline (PBS) without Ca^2+ and Mg^2+ (Gibco, 20012) for washing and 3-5 mL per T-175 flask of TrypLE Express Enzyme (Gibco, 12604) for dissociation of adherent cells.
Cryptosporidium parvum oocysts purchased from the Sterling Laboratory, University of Arizona (Iowa isolate) were purified from infected calf feces using discontinuous sucrose and cesium chloride centrifugation gradients and stored in PBS solution containing 0.01% Tween 20, 100 units/mL penicillin and 100 units/mL gentamicin.
(§2) Excystaion and infection: Excystation and infection protocols were developed following established methods with some modifications (Gut & Nelson, 1999, Upton et al., 1995, Bessoff et al., 2013). Briefly, oocysts were primed in 1 mL of 10 mM hydrochloric acid in 1× Hank's Balanced Salt Solution (HBSS) (Gibco, 14025) for 10 minutes with agitation at 1000 rpm, 37° C. on an Eppendorf thermomixer, then washed twice with 1 mL of room temperature non-acidic 1× HBSS by centrifugation at 13,000 rpm for 3 minutes at 25° C. Primed oocysts were further excysted at a concentration of 1×10^6 oocysts/μL in parasite infection medium consisting of a pre-warmed and pre-gassed 1:1 formulation of Leibovitz's L-15 medium (Gibco, 11415) and UltraCULTURE medium (Lonza, 12-725F) supplemented with 2 mM sodium taurocholate (Sigma, 86339-1), 10% heat-inactivated horse serum, and 200 μM L-ascorbic acid (Sigma, 95210) at 25° C. for 10 minutes. HCT-8 monolayer cells were infected with excysted cryptosporidium at a specified multiplicity of infection (MOI). All dilutions for subsequent assays were performed in parasite infection medium without sodium taurocholate. Pre-excysted oocysts were enumerated microscopically using a C-Chip disposable hemocytometer (NanoEnTek, DHC-N01).
Compound and assay plate preparation: Compound powders were dissolved in neat DMSO (Fisher, D4121) to 10 mM and stored at 4° C. prior to dilution into source plates. Dilutions were carried out using a Microlab STAR liquid handler (Hamilton) to obtain compound source plates containing the ten-point or eight-point three fold dilutions starting from 10 mM in duplicates. Source plates were stored at 4° C. prior to spotting into assay plates. Before administration, all compound source plates were equilibrated to room temperature. A specified volume of compounds from source plate were spotted to assay plate using an Echo Acoustic liquid handler (LABCYTE, 550) so that the final DMSO concentration was less than 0.5%. Each assay plate a specified number of DMSO-treated negative control wells and a well-studied potent active compound at 100 nM as positive control. As a quality control, all positive and negative-control wells were used to calculate a Z′-value and signal to noise ratio (S:N) for each plate.
Cryptosporidium spp are obligate-intracellular parasites that infect intestinal epithelial cells and the host cell is killed upon parasite egress. […] The loss of epithelial cells is due to both rapid parasite invasion/multiplication/egress and also pro-inflammatory immune response (Adams et al., 1994, Griffiths et al., 1994). We have observed a consistent cytopathic effect (CPE) in HCT-8 cells with C. spp infection the loss of viability of the host cells using CellTiter-Glo reagent.
Confluent HCT-8 cells in T-175 flasks were directly infected with excysted oocysts at an MOI (host to parasite) of 1:2 for C. parvum and 1:4 for C. hominis. […]

C. parvum PI(4)K = C. parvum PI(4)K (Cryptosporidium parvum, UniProt Q5CVD3); test: CpPI(4)K enzymatic assay (Transcreener ADP2 FP); format: biochemical
Chain of C. parvum PI(4)K (Q5CVD3 entry or part of it): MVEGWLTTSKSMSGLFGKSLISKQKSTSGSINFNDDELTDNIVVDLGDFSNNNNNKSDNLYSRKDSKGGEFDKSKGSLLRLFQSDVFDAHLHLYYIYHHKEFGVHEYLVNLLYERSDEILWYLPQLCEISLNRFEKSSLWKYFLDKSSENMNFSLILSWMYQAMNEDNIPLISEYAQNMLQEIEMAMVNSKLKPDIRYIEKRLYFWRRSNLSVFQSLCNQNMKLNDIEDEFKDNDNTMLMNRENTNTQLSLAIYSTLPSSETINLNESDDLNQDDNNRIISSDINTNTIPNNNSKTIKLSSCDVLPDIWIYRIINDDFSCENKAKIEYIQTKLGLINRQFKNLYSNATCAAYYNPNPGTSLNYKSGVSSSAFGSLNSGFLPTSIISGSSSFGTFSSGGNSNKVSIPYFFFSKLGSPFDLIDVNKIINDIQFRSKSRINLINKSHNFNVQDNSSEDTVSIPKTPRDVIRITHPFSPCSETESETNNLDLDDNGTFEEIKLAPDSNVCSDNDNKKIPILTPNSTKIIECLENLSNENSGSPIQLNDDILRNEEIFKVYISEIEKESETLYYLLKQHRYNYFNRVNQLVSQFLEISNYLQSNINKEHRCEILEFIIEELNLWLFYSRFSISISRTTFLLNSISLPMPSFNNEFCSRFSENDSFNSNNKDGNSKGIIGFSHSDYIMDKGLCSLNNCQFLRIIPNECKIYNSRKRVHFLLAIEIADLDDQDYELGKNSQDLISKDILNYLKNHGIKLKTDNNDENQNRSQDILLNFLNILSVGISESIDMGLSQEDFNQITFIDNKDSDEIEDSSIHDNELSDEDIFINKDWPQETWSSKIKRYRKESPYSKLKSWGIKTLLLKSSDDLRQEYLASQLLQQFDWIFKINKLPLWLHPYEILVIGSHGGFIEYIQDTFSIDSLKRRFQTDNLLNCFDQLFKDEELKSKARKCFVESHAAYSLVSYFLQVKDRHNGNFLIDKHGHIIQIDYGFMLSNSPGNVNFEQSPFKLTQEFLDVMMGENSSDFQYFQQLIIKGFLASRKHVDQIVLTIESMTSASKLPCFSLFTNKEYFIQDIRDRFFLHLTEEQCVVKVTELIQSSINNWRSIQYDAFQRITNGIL
From the text: Baculovirus expression and purification of C. parvum phosphatidylinositol 4-kinase: The full-length coding sequence of C. parvum PI(4)K (cgd8_4500, 1114 amino acids) was codon-optimized for baculovirus expression, synthesized and cloned into pFastBac-HTb (Invitrogen 10584-027) in frame with the amino-terminal polyhistidine tag using the BamHI and HindIII restriction sites. Recombinant pFastBacHTb-CpPI(4)K bacmid clones were generated by site-specific transposition in E. coli DH10Bac (Invitrogen 10361-012). The bacmid sequence was confirmed by direct DNA sequencing to confirm a lack of mutations across the whole gene. The subsequent steps for bacmid isolation, transfection and selection of the recombinant viruses were performed according to the manufacturer's protocol (Bac-to-Bac system #10359, Invitrogen).
SF9 cells, cultured in […] serum-free medium, were transfected with recombinant baculovirus at 1/200 (v/v) and incubated at 27° C. for 72 h. The pellets were collected after centrifugation and re-suspended in cell lysis buffer (20 mM Tris-HCl, pH 7.5, 300 mM NaCl, 1 mM DTT, 20 mM imidazole, 0.01% Triton X-100 and 1× complete protease inhibitor cocktail without EDTA (Roche Diagnostics 04693116001)). The cell suspension was lysed by sonication and the clarified supernatant was loaded onto a 1 ml HisTrap affinity column (GE Healthcare) pre-equilibrated with buffer A (20 mM Tris-HCl, pH 7.5, 300 mM NaCl, 1 mM DTT, 20 mM Imidazole, and 1× complete protease inhibitor cocktail without EDTA). The column was washed with buffer B (buffer A containing 45 mM imidazole) and the bound protein of interest was eluted with buffer C (buffer A with 90 mM imidazole). The fractions containing CpPI(4)K were pooled, concentrated using Amicon Ultra-15 and purified by a gel-filtration column (Hi-Load 26/60 Superdex 200, GE Healthcare) equilibrated with 20 mM Tris, pH 7.5, 300 mM NaCl, 1 mM DTT and 1× protease inhibitor cocktail without EDTA. The concentrations of the purified protein (Mw 132.39 kda) was determined by using the protein molar extinction coefficient (ε280 nm=133,810 M^−1 cm^−1). Aliquots were flash frozen in liquid nitrogen and immediately stored at −80° C.
PI(4)K enzymatic Assay The CpPI(4)K enzymatic assay was performed as described earlier with a some modifications (McNamara et al., 2013). Briefly, L-α-phosphatidylinositol (Avanti Polar Lipid 840046), dissolved in 3% n-octylglucoside (Roche Diagnostics 10634425001), was used as the lipid substrate for the PI(4)K activity assay. CpPI(4)K was assayed using Transcreener ADP2 FP detection kit (BellBrook 3010) in a black, solid 384-well plate (Corning 3575). The final assay volume was 10 μl and contained 3 nM of the respective CpPI(4)K construct in 10 mM Tris, pH 7.5, 1 mM DTT, 3 μM ATP, 5 mM Mn2+, 0.05% Triton X-100 and 10 μM phosphatidylinositol/octylglucoside. The enzyme reaction was performed for 50 minutes at room temperature and was stopped by adding 10 μl of detection mix containing 1× stop buffer (50 mM HEPES, pH7.5, 400 mM NaCl, 20 mM EDTA, and 0.02% Brij-35), 2 nM AMP Alexa Fluor 633 tracer, and 20 μg ml^−1 ADP antibody. Fluorescence polarization measurements were performed on the Infinite M1000 plate reader (Tecan) with λex=635 nm and λem=680 nm (20-nm bandwidth). IC50 values were calculated using Graphpad Prism software.

Cryptosporidium hominis = test: Cytopathic effect (CPE) based assay, C. hominis-infected HCT-8 cells; format: cell-based; settings: HCT-8 host cells, 48 hours treatment, CellTiter-Glo, read-out: (c) C.h.* CPE EC50
Procedure: as §1
Cryptosporidium hominis oocysts were purchased from the Tufts University Cummings School of Veterinary Medicine (courtesy of Dr. Saul Tzipori). C. hominis oocysts were purified from infected gnotobiotic piglet feces and stored in PBS solution containing 0.01% Tween-20, 100 units/mL penicillin and 100 units/mL gentamicin. C. parvum and C. hominis oocysts less than three months old from the date of shedding were used in infection experiments.
as §2
Compound and assay plate preparation: Compound powders were dissolved in neat DMSO (Fisher, D4121) to 10 mM and stored at 4° C. prior to dilution into source plates. Dilutions were carried out using a Microlab STAR liquid handler (Hamilton) to obtain compound source plates containing the ten-point or eight-point three fold dilutions starting from 10 mM in duplicates. […]

H.s. PI(4)K = H.s. PI(4)K (Homo sapiens, UniProt Q9UBF8); test: H.s. PI(4)K IC50; format: biochemical; settings: read-out: (d) H.s.* PI(4)K IC50
Chain of H.s. PI(4)K (Q9UBF8 2-816 limits assumed): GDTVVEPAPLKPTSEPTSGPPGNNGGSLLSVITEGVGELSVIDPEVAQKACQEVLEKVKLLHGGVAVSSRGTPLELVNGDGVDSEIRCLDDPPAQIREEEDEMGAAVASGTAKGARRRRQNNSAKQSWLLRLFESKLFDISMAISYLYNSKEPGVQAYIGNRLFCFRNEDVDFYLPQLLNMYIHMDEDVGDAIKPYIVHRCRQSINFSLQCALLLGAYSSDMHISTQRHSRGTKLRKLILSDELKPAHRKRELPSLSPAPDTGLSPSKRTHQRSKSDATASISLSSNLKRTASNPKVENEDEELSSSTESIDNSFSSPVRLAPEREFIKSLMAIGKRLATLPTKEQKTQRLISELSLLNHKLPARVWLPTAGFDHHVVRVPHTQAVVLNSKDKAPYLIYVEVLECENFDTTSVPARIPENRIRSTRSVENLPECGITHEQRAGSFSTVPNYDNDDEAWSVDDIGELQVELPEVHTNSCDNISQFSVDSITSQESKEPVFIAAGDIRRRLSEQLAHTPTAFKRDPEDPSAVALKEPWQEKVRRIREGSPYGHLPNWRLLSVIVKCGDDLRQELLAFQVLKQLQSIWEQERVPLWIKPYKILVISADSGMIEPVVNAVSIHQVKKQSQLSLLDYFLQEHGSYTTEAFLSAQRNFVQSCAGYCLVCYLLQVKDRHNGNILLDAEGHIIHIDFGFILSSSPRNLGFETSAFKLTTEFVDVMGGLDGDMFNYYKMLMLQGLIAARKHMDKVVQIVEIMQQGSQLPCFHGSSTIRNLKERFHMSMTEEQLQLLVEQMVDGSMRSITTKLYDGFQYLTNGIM

SMILES | EC50 (Cryptosporidium parvum) [µM] | IC50 (C. parvum PI(4)K) [nM] | EC50 (Cryptosporidium hominis) [nM] | IC50 (H.s. PI(4)K) [nM]
COC(=O)c1cc(N(C)C(=O)c2ccn3ncc(-c4ccc(C(N)=O)cc4)c3c2)ccc1Cl [Example 1.01, Methyl 5-(3-(4-carbamoylphenyl)-N-methylpyrazolo[1,5-a]pyridine-5-carboxamido)-2-chlorobenzoate] | < 0.1 | < 100 | < 100 | 100 to 1000
CN(C(=O)c1ccn2ncc(-c3ccc(C(N)=O)cc3)c2c1)c1ccc(Cl)c(C(=O)O)c1 [Example 1.03, 5-(3-(4-Carbamoylphenyl)-N-methylpyrazolo[1,5-a]pyridine-5-carboxamido)-2-chlorobenzoic acid] | > 1 | < 100 | – | 100 to 1000
CN(C(=O)c1ccn2ncc(-c3ccc(C(N)=O)cc3)c2c1)c1ccc(Cl)c(C(=O)OCCN2CCOCC2)c1 [Example 1.08, 2-Morpholinoethyl 5-(3-(4-carbamoylphenyl)-N-methylpyrazolo[1,5-a]pyrdine-5-carboxamido)-2-chlorobenzoate] | 0.1 to 1 | < 100 | – | > 1000
CNC(=O)c1ccc(-c2cnn3ccc(C(=O)N(C)c4ccc(Cl)c(C(=O)O)c4)cc23)cc1 [Example 1.18, 2-Chloro-5-(N-methyl-3-(4-(methylcarbamoyl)phenyl)pyrazolo[1,5-a]pyridine-5-carboxamido)benzoic acid] | > 1 | < 100 | – | 100 to 1000
CNC(=O)c1ccc(-c2cnn3ccc(C(=O)N(C)c4ccc(Cl)c(C(=O)OCCN5CCOCC5)c4)cc23)cc1 [Example 1.19, 2-Morpholinoethyl 2-chloro-5-(N-methyl-3-(4-(methylcarbamoyl)phenyl)pyrazolo[1,5-a]pyridine-5-carboxamido)benzoate] | 0.1 to 1 | < 100 | – | 100 to 1000
COC(=O)c1cc(N(C)C(=O)c2ccn3ncc(-c4ccc(C(N)=O)cc4C)c3c2)ccc1Cl [Example 1.21, Methyl 2-chloro-5-(N-methyl-3-(2-methyl-4-(carbamoyl)phenyl)pyrazolo[1,5-a]pyridine-5-carboxamido)benzoate] | 0.1 to 1 | < 100 | – | > 1000
CNC(=O)c1ccc(-c2cnn3ccc(C(=O)N(C)c4ccc(Cl)c(C(=O)OC)c4)cc23)cc1C [Example 1.22] | > 1 | 100 to 1000 | – | > 1000
COC(=O)c1cc(NC(=O)c2ccn3ncc(-c4ccc(C(N)=O)cc4)c3c2)ccc1Cl [Example 1.23, Methyl 5-(3-(4-carbamoylphenyl)pyrazolo[1,5-a]pyridine-5-carboxamido)-2-chlorobenzoate] | > 1 | > 1000 | – | > 1000
CNC(=O)c1ccc(-c2cnn3ccc(C(=O)Nc4ccc(Cl)c(C(=O)OC)c4)cc23)cc1 [Example 1.24, Methyl 2-chloro-5-(3-(4-(methylcarbamoyl)phenyl)pyrazolo[1,5-a]pyridine-5-carboxamido)benzoate] | > 1 | > 1000 | – | > 1000
COC(=O)c1cc(N(C)C(=O)c2ccn3ncc(-c4ccc(C(N)=O)cc4)c3c2)ccc1OC(F)(F)F [Example 1.25, Methyl 5-(3-(4-carbamoylphenyl)-N-methylpyrazolo[1,5-a]pyridine-5-carboxamido)-2-(trifluoromethoxy)benzoate] | 0.1 to 1 | < 100 | – | > 1000
COC(=O)c1cc(N(C)C(=O)c2ccn3ncc(-c4ccc(C(N)=O)cc4)c3c2)ccc1C#N [Example 1.27, Methyl 5-(3-(4-carbamoylphenyl)-N-methylpyrazolo[1,5-a]pyridine-5-carboxamido)-2-cyanobenzoate] | < 0.1 | < 100 | – | > 1000
CNC(=O)c1ccc(-c2cnc3cnc(C(=O)N(C)c4ccc(Cl)c(C(=O)OC)c4)cn23)cc1 [Example 2.1, Methyl 2-chloro-5-(N-methyl-3-(4-(methylcarbamoyl)phenyl)imidazo[1,2-a]pyrazine-6-carboxamido)benzoate] | 0.1 to 1 | < 100 | – | > 1000
